Earlier results on one compound are cited in patent US8093271B2, “Anti-acid pharmaceutical composition in powder form and process for making it” (Laboratorios Bago S.A., priority 2006, dated 2012).

The conditions of data set [1]: in water.

Read-outs that look alike come from different tables or passages of the source.

`COc1ccc2[nH]c([S+]([O-])Cc3ncc(C)c(OC)c3C)nc2c1` (stereo not shown) [omeprazole]: the “time by which absorption is completed” value (absorption in the small intestine) was 3 to 6 h. Also, the “time required to reach the intestine” value (fasting state) was 20 to 30 min. The results for the half life entry in data set [1] (pH near 7) and in data set [1] (pH of 4) were “about 14 hours” and “lower than 10 minutes”, respectively.
